From ChEMBL document CHEMBL1143406 (Antimicrob Agents Chemother, 2007)

Legend:
Type in all cases: ADME, organism-based
[1] = Cmax in HIV-negative human at 600 mg, po administered every 24 hrs coadministered with 400 mg of atazanavir every 12 hrs; set-up: dose 600 mg, route oral; details: in vivo
[2] = Half life in HIV-negative human at 600 mg, po administered every 24 hrs coadministered with 300 mg of atazanavir every 12 hrs; details: in vivo
[3] = AUC (24 hrs) in HIV-negative human at 600 mg, po administered every 24 hrs coadministered with 300 mg of atazanavir every 12 hrs; set-up: dose 600 mg, time < 24 hr, route oral; details: plasma
[4] = Tmax in HIV-negative human at 600 mg, po administered every 24 hrs coadministered with 400 mg of atazanavir every 12 hrs; details: in vivo
[5] = Tmax in HIV-negative human at 600 mg, po administered every 24 hrs coadministered with 300 mg of atazanavir every 12 hrs; details: in vivo
[6] = Apparent oral clearance in HIV-negative human at 600 mg, po administered every 24 hrs coadministered with 300 mg of atazanavir every 12 hrs; details: in vivo
[7] = Cmax in HIV-negative human at 600 mg, po administered every 24 hrs coadministered with 300 mg of atazanavir every 12 hrs; set-up: dose 600 mg, route oral; details: in vivo
[8] = Apparent oral clearance in HIV-negative human at 600 mg, po administered every 24 hrs coadministered with 400 mg of atazanavir every 12 hrs; details: in vivo
Homo sapiens [9] = test: Terminal apparent distribution volume in HIV-negative human at 600 mg, po administered every 24 hrs coadministered with 300 mg of atazanavir every 12 hrs; details: in vivo
[10] = AUC (24 hrs) in HIV-negative human at 600 mg, po administered every 24 hrs coadministered with 400 mg of atazanavir every 12 hrs; set-up: time < 24 hr, dose 600 mg, route oral; details: plasma
Homo sapiens [11] = test: Terminal apparent distribution volume in HIV-negative human at 600 mg, po administered every 24 hrs coadministered with 400 mg of atazanavir every 12 hrs; details: in vivo
[12] = Half life in HIV-negative human at 600 mg, po administered every 24 hrs coadministered with 400 mg of atazanavir every 12 hrs; details: in vivo

CO[C@H]1/C=C/O[C@@]2(C)Oc3c(C)c(O)c4c(O)c(c(/C=N/N5CCN(C)CC5)c(O)c4c3C2=O)NC(=O)/C(C)=C\C=C\[C@H](C)[C@H](O)[C@@H](C)[C@@H](O)[C@@H](C)[C@H](O)[C@@H]1C
Cmax [1]: 1710 ng/mL
half-life [2]: 1.6 h
AUC at 24 h [3]: 8300 ng·h/mL
Tmax [4]: 3.7 h
Tmax [5]: 3.2 h
CL/F [6]: 1490 mL/min
Cmax [7]: 1650 ng/mL
CL/F [8]: 1260 mL/min
Vbeta (Homo sapiens [9]): 200 L
AUC at 24 h [10]: 9400 ng·h/mL
Vbeta (Homo sapiens [11]): 159 L
half-life [12]: 1.5 h
